Experimental findings from patent US20250009627A1, “THERAPEUTIC AND NON-THERAPEUTIC USES OF A PERSONAL CLEANSING COMPOSITION AND METHODS OF TREATMENT” (The Procter & Gamble Company, priority 2023, published 2025) are described below.

The test system of one data set is E. coli ATCC25922. Nature of the data set: Kill Rate Test in liquid (suspension time-kill testing). It counts as cell-based, Escherichia coli. Particulars: pH up to or equal to 4. The source says:
The suspension time-kill test is a method to directly inoculate a liquid test substance with a high concentration of test microorganisms and then determine the percentage of killed over time, normally represented as log CFU reduction. The objective is to measure the biocidal potential of a liquid antimicrobial active or formulation.
E. coli ATCC25922 is streaked on Tryptic Soy Agar (TSA) Plates and cultured overnight. Pick up one colony of E. coli ATCC25922 and subculture bacterial cell in Tryptic Soy Broth (TSB) @ 200 rpm/min, 37° C. for 12-16 hours. After culturing, 1 mL bacterial cells in broth are pipetted into 2 mL tubes. Samples are centrifuged for 2 mins at 13000 rpm/min. Cell supernatant are discarded, and bacterial cells are resuspended in 1 mL Saline @ 10^8 to 10^9 CFU/mL. 1 mL liquid antimicrobial active to be tested under different concentrations is prepared: 20 mM acetate buffers are used to maintain the test solutions at a pH between 4.0 and 5.7. 10 mM phosphate buffer is used to maintain the test solution at a pH around 7.2. 20 mM Tris-HCl buffers are used to maintain the test solutions at a pH between 8.0 and 9.0. 1 mL saline (NaCl 0.9 wt. %) is used to as negative control in the study. 50 μl of 10^8 to 10^9 CFU/mL bacterial cells are added into each treatment and saline control. Samples were thoroughly mixed by vertexing 5 seconds. After incubating 30 minutes, 50 μl liquid from each treatment sample and saline control are pipetted out into for Total Viable Count Vial (NEOGEN). All measurements are done in duplicates. The Detection Time (DT) for Total Viable Count Vial is measured by Soleris® Next Generation (NEOGEN) system. DT values are averaged for each treatment and control for further calculation. DT time for each sample is converted to Log (viable cell number) by using algorithm generated for E. coli ATCC25922:
Biocidal potential of different actives at different concentrations and at different pHs in a liquid solution is measured by: […]

For data set [1], the system named is Corynebacterium minutissimum ATCC 23348. Nature of the data set: In vitro Minimum Inhibitory Concentration (MIC) testing. It counts as cell-based. As to the method:
(§1) The in vitro Minimum Inhibitory Concentration (MIC) Assay is a technique for determining the lowest concentration of a particular compound needed to prevent growth of microorganism. Different microorganisms were used to evaluate bacterial inhibition benefits for sulfate surfactants (Table 1) [table] Microorganisms are cultured and maintained in different culture medium. Each respective microorganism stock solution is diluted to 10^5 to 10^6 CFU/mL in a respective growth medium. 180 μl broth with the respective target microorganism is allocated into 96 well plates. For instance, Corynebacterium minutissimum ATCC 23348 is cultured on tryptic soy agar (TSA) (Oxoid CM0131) over 24 hours. The single colonies are then transferred into 20 mL Tryptone Soy Broth (Oxoid CM0129B—TSB) and cultured overnight at 200 rpm/min, 37° C. Bacterial cell in broth will be diluted to 10^5 to 10^6 CFU/mL in TSB. 180 μL of this bacterium-MHB mix is added to a 96 well flat-bottomed plate (Nunc™ MicroWell™ 96-Well, CAT. No. 167008). Sodium oleyl sulfate prepared from two different synthesis batches (Ex. 1A and Ex. 1B), sodium octyl sulfate, sodium decyl sulfate, sodium lauryl sulfate were mixed respectively with in Deionized (DI) water. Octadecyl sulfate sodium was mixed in Dimethyl sulfoxide (DMSO). Two folds serial dilution are applied to each respective active by mixing 100 μl active stock solution (from 1 wt. %) plus 100 μl sterilized DI water or DMSO in 96 well plates (Nunc™ MicroWell™ 96-Well, CAT. No. 167008). For each assay, 0.001-1 wt. % treatment solutions are prepared for each individual active. Micropipettes are used to transfer 20 μl of actives at different concentration into each well with 180 μl broth with the respective target microorganisms. The 96 well plates with test microorganisms and test actives are incubated at 37° C. • a) E. coli are incubated for overnight 16 hours to 24 hour. • b) Corynebacterium minutissimum is incubated for two days. • c) Cutibacterium acnes is incubated for two days under anaerobic conditions. After incubation, microorganism growth is determined in presence of test actives by visual inspection or spectrophotometer by OD600 (absorbance at 600 nm using Tecan M200 Infinite Pro Microplate Reader) reading in comparison with positive control (broth with individual microorganism) and negative control (Broth only). MIC values are presented as parts per million (ppm) for different actives.

In another data set the test system is Cutibacterium acne SK137. The data set is described as above. In kind it is cell-based, Cutibacterium acnes. Particulars: two strains (SK137, 2044 NIA). As to the method:
as §1, with “plates.” for “plates. For instance, Corynebacterium minutissimum ATCC 23348 is cultured on tryptic soy agar (TSA) (Oxoid CM0131) over 24 hours. The single colonies are then transferred into 20 mL Tryptone Soy Broth (Oxoid CM0129B—TSB) and cultured overnight at 200 rpm/min, 37° C. Bacterial cell in broth will be diluted to 10^5 to 10^6 CFU/mL in TSB. 180 μL of this bacterium-MHB mix is added to a 96 well flat-bottomed plate (Nunc™ MicroWell™ 96-Well, CAT. No. 167008).”

Data set [2] deals with Escherichia coli ATCC25922. Described as above. It counts as cell-based. Particulars: pH of the assay of 7.2. How it is done:
as §1, with “plates.” for “plates. For instance, Corynebacterium minutissimum ATCC 23348 is cultured on tryptic soy agar (TSA) (Oxoid CM0131) over 24 hours. The single colonies are then transferred into 20 mL Tryptone Soy Broth (Oxoid CM0129B—TSB) and cultured overnight at 200 rpm/min, 37° C. Bacterial cell in broth will be diluted to 10^5 to 10^6 CFU/mL in TSB. 180 μL of this bacterium-MHB mix is added to a 96 well flat-bottomed plate (Nunc™ MicroWell™ 96-Well, CAT. No. 167008).”

On data set [3], the source says: The term “Biodegradable Test” as used herein means the test as described in the Test Method Section herein in which the test material is suspended in a phosphate buffered media containing an activated sludge inoculum and the formation of carbon dioxide measured via a closed-circuit respirometer. The test material is the sole carbon and energy source and under aerobic conditions microorganisms metabolize organic substances producing CO2 as the ultimate product. The biodegradability of the salt of the alkenyl sulfate ester, preferably sodium oleyl sulfate can be tested according to the following method. The Biodegradability Test Method is based on the Organization for Economic Co-operation and Development (OECD) 301B CO2 evolution biodegradation test method that screens chemicals for ready biodegradability in an aerobic aqueous medium. In this test, the test substance is suspended in a phosphate buffered nutrient salts media containing an activated sludge inoculum and the formation of carbon dioxide is measured via a closed-circuit respirometer. […] The test system is dosed with a known quantity of carbon and biodegradation is calculated as the percent of theoretical CO2 formation. […] Ready biodegradability is a regulator definition that is used to classify materials that meet the pass criteria as described in the OECD 301B guideline. […]

Regarding `CCCCCCCC/C=C\CCCCCCCCOS(=O)(=O)[O-].[Na+]` [sodium oleyl sulfate], in the data set on E. coli ATCC25922, the “bactericidal activity against E. coli in solution (in words)” value is listed as “some bactericidal activity”. Also, in data set [1], the “bacterial inhibition of Corynebacterium minutissimum (in words)” value was “strong bacterial inhibition effects”. Also, in the data set on Cutibacterium acne SK137, the “bacterial inhibition of Cutibacterium acne (in words)” value is “strong bacterial inhibition effects”. For the same compound, the “effect against gram-negative E. coli (in words)” value in data set [2] is given as “ineffective”. Also, in data set [3], the ready biodegradability entry was “meeting both requirements for ready biodegradability”.
